Source: ChEMBL document CHEMBL4196229, “GPR40 Receptor Agonists for the Treatment of Type 2 Diabetes and Related Diseases” (ACS Med Chem Lett, 2018)

molecular target: Free fatty acid receptor 1 (Homo sapiens, UniProt O14842); test: Agonist activity at human GPR40 expressed in human 1321N1 cells assessed as IP1 accumulation after 1 hr by HTRF assay; format: functional, cell-based
Sequence (O14842 whole entry): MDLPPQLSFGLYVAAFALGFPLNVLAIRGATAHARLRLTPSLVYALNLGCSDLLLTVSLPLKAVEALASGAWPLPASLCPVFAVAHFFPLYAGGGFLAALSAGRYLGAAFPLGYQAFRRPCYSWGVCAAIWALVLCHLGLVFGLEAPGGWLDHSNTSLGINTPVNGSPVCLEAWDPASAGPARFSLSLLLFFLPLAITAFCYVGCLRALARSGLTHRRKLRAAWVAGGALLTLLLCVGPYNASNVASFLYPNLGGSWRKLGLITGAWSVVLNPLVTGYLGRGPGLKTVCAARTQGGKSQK

Question: `Cc1cc(OCCC(C)(C)O)cc(C)c1-c1ccc(F)c2c1CC[C@H]2Nc1ccc([C@H]2C[C@@H]2C(=O)O)nc1` was tested. Which EC50 did it give?
Answer: 11 nM

Question: With `Cc1cc(-c2cccc(=O)n2C)cc(C)c1-c1ccc(F)c2c1CC[C@H]2Nc1ccc([C@H]2C[C@@H]2C(=O)O)nc1` as the compound, how does the EC50 read?
Answer: 4 nM

Question: For `Cc1cc(OCC2CCOC2)cc(C)c1-c1ccc(F)c2c1CC[C@H]2Nc1ccc([C@H]2C[C@@H]2C(=O)O)nc1` (stereo not given in full), which EC50 is on record?
Answer: 7 nM

Question: Which EC50 does the source give for `CNC(=O)c1cc(C)c(-c2ccc(F)c3c2CC[C@H]3Nc2ccc([C@H]3C[C@@H]3C(=O)O)nc2)c(C)c1` here?
Answer: 148 nM

Question: How did the EC50 turn out when `Cc1cc(-c2nnn(CC(C)(C)O)n2)cc(C)c1-c1ccc(F)c2c1CC[C@H]2Nc1ccc([C@H]2C[C@@H]2C(=O)O)nc1` was run?
Answer: 2 nM
